Assay results as given in patent US6818669B2, “Increasing cerebral bioavailability of drugs” (Enos Pharmaceuticals, Inc., priority 1999, dated 2004).

Assays:
[1] = Uptake of tritium labeled Dizocilpine in MCA territory after MCA occlusion (Example 6, autoradiography); type: in vivo, mice; details: L-arginine 400 mg/kg infusion over 10 min acutely or Simvastatin SC 3 weeks, Example 6 written in present tense
Procedure: 4 groups of mice receive the following treatments by SQ administration for 3 weeks, followed on day 22 by a surgery where an MCA occlusion is induced by an insertion of a modified 8-0 suture. […] Thereafter the mice are sacrificed at 15 and 30 minutes, and the brain tissue is frozen and sectioned and then analyzed by autoradiographic methods to quantitate the amount of radiolabeled compound present within the MCA territory on the side of occlusion.
1) 2 groups of saline SC injection over 3 weeks
a) 1 group after surgery received radio labeled Dizocilpine
2) 2 groups of Simvastain SC injection over 3 weeks

wild type mice = experiment: Regional cerebral blood flow (rCBF) by laser-Doppler flowimetry after L-arginine infusion, wild type and simvastatin-treated mice; type: in vivo
Description: (§1) The number of mice in each group is indicated in parenthesis.

[2] = mouse, in vivo
[3] = test system: mutant mice deficient in endothelial nitric oxide synthase (eNOS null); experiment: Regional cerebral blood flow (rCBF) by laser-Doppler flowimetry after L-arginine infusion, eNOS null mice; type: in vivo; details: L-arginine 450 mg/kg i.v.
Description: as §1

[4] = L-arginine infusion in simvastatin-treated mice
[5] = wild type mice, L-arginine 450 mg/kg i.v.

For `N=C(N)NCCC[C@H](N)C(=O)O` [L-arginine], the “uptake of Dizocilpine within the underperfused brain” value [1] was “higher uptake”, the “elevations in regional cerebral blood flow (RCBF)” value (wild type mice; L-arginine 300 mg/kg i.v., preliminary experiments n=4, modest and variable) was 10% and the “additional time for which rCBF increases sustained” value (wild type mice; [4]) was 20 min. For the same compound, the “time of maximum rCBF increase” value (wild type mice; [4]) was 15 to 20 min, the “maximum rCBF increase over simvastatin baseline” value (wild type mice; L-arginine infusion in simvastatin-treated mice, at 15-20 min) was 29-31% and the “increase in blood flow in the 30-40 minute epoch, simvastatin treated compared to non treated control” value (wild type mice; L-arginine infusion, P<0.05) was “larger”. The “time at which increase in RCBF began” value (wild type mice; [5]) was 5 to 10 min, the “time of maximum rCBF values” (wild type mice; [5]) was 20 to 25 min and the “time at which RCBF increase achieved statistical significance” value (wild type mice; wild type mice, L-arginine 450 mg/kg i.v., after infusion) was 10 to 15 min. The “maximum rCBF increase above baseline” value (wild type mice; wild type mice, L-arginine 450 mg/kg i.v., parietal cortex, at 20-25 min) was 26%, the “blood pH after infusion (in words)” value [2] was “lower” and the “rCBF change during the 40 minute recording period” value [3] was −4 to +5%. The “rCBF response (in words)” value [3] was “did not increase rCBF”.

With `CCC(C)(C)C(=O)O[C@H]1C[C@@H](C)C=C2C=C[C@H](C)[C@H](CC[C@@H]3C[C@@H](O)CC(=O)O3)[C@H]21` [simvastatin] the “increase of baseline rCBF” value (wild type mice; after chronic daily administration of simvastatin alone) was 25%.
